Assays:
[1] = system: CD8+ spleen cells of HLA transgenic mice (HLA-A01/Kb, F1 HLA-A02/KbxBalb/c, HLA-A11/Kb, HLA-A24/Kb); assay: Immunogenicity after HPV DNA construct immunization, direct ex vivo IFNγ ELISPOT; assay type: in vivo, mouse; conditions: for ICCG6138 SFC/10^6 cells Delta / ICCG6138 SFC/10^6 cells Ratio: immunization with DNA construct ICCG 6138; for ICCG6138 SFC/10^6 cells Delta / ICCG6137 SFC/10^6 cells Delta: HLA transgenic mice (HLA-A01/A02/A11/A24), CD8+ cells restimulated with WT peptide 10 μg/mL; for ICCG6138 SFC/10^6 cells Delta / ICCG6138 SFC/10^6 cells Ratio / ICCG6137 SFC/10^6 cells Delta / ICCG6137 SFC/10^6 cells Ratio: IFNγ ELISPOT; for ICCG6138 SFC/10^6 cells Ratio / ICCG6137 SFC/10^6 cells Ratio: HLA transgenic mice, response ratio, WT peptide 10 μg/mL; for ICCG6137 SFC/10^6 cells Delta / ICCG6137 SFC/10^6 cells Ratio: immunization with DNA construct ICCG 6137
Method: The immunogenicity of HPV HLA class I-restricted epitopes encoded in the DNA constructs was tested in the relevant HLA transgenic mice. […] To ensure an equal distribution of mice between different groups, a randomisation procedure based on body weight was performed. Female and male mice (age between 8 and 24 weeks) were ranked by body weight, extreme light or heavy animals were excluded. The remaining animals were grouped by sequentially assigning animals for the 2 experiments.
Mice were pre-treated with cardiotoxin (Sigma, C9759) on day −4 by bilateral intramuscular injection of 100 μl (2×50 μl) of a 10 μM cardiotoxin solution. Four days later, all mice were immunised with 100 μg HPV-DNA plasmid (diluted to 1 mg/ml in PBS) by bilateral injection of 50 μg in the m. tibialis anterior. […]
(§1) Mice were euthanized and spleen cells (SPC) were isolated 13 days after immunization. […] Spleen cells of DNA- and peptide-immunized HLA-A11/Kb mice were analyzed individually. SPC of all negative control mice were pooled per 2 mice, resulting in 3 data points for each peptide tested.
(§2) A direct ex vivo IFNγ ELISPOT assay was used as surrogate CTL readout. Basically, purified CD8+ cells were incubated with the individual HPV-specific HLA-restricted peptides (10 μg/mL) loaded on the appropriate antigen presenting cells (APC), in anti-mouse IFNγ antibody-coated ELISPOT plates. […] After 20 h incubation, IFNγ-producing cells were visualized by further developing the plates with biotinylated anti-mouse IFNγ antibody, streptavidin-HRP and AEC as substrate.
(§3) Some of the CTL epitopes included in the DNA constructs are analoged sequences of the wild type viral epitopes. For these particular epitopes, only the wild type sequences were used as in vitro stimulus for CTL readout.

[2] = system: CD8+ spleen cells of HLA transgenic mice (HLA-A01/Kb, F1 HLA-A02/KbxBalb/c, HLA-A11/Kb, HLA-A24/Kb); assay: Immunogenicity after peptide pool/IFA immunization, direct ex vivo IFNγ ELISPOT; assay type: in vivo, mouse; conditions: for Delta SFC/10^6 cells / Ratio: Peptide Pool; for Peptide Pool SFC/10^6 cells Delta / Peptide Pool SFC/10^6 cells Ratio: immunization with pool of peptides emulsified in IFA, IFNγ ELISPOT; for Peptide Pool SFC/10^6 cells Delta: HLA transgenic mice (HLA-A01/A02/A11/A24), CD8+ cells restimulated with WT peptide 10 μg/mL; for Peptide Pool SFC/10^6 cells Ratio: HLA transgenic mice, response ratio, WT peptide 10 μg/mL
Method: CTL binding epitopes were evaluated for their immunogenicity in different HLA transgenic mice. To this, a single immunization with CTL peptide pools together with a common HTL epitope emulsified in IFA was performed and up to 14 days later, CD8+ spleen cells were isolated and evaluated for epitope specificity using a direct ex vivo IFNγ ELISPOT assay.
Peptides were dissolved in DMSO at a concentration of 10 mg/mL. For each of the 4 DNA constructs, the corresponding HLA-restricted peptides were pooled per HLA type (5 to 7 CTL peptides/pool). A known HTL peptide ([…]) was added and the peptide pools were diluted in PBS to the required peptide concentration (i.e. 25 μg of each CTL peptide and 120 μg HTL peptide in 50 μl). After adding an equal volume of IFA (Pierce, lot DG56079), the mixture was emulsified by forcing it through a small orifice. Mice were immunized subcutaneously at the base of the tail with 50 μl peptide/IFA mixture.
As negative control for the peptide-immunized mice, 18 mice (in total) were injected with a PBS/IFA mixture.
as §1, §2, §3

[3] = HLA-A01 epitopes, HLA-A01/Kb mice, DNA construct ICCG6150, median of mouse pools
[4] = HLA-A01 epitopes, HLA-A01/Kb mice, median of mouse pools
[5] = HLA-A02 epitopes, F1 HLA-A02/KbxBalb/c mice, DNA construct ICCG6149, median of mouse pools
[6] = HLA-A02 epitopes, F1 HLA-A02/KbxBalb/c mice, DNA construct ICCG6150, median of mouse pools
[7] = HLA-A02 epitopes, F1 HLA-A02/KbxBalb/c mice, median of mouse pools
[8] = HLA-A11 epitopes, HLA-A11/Kb mice, DNA construct ICCG6149, median
[9] = HLA-A11 epitopes, HLA-A11/Kb mice, DNA construct ICCG6150, median
[10] = HLA-A11 epitopes, HLA-A11/Kb mice, median
[11] = HLA-A24 epitopes, HLA-A24/Kb mice, DNA construct ICCG6149, median of mouse pools
[12] = HLA-A24 epitopes, HLA-A24/Kb mice, DNA construct ICCG6150, median of mouse pools
[13] = HLA-A24 epitopes, HLA-A24/Kb mice, median of mouse pools

## 132 (ISEYRHYCY; Human papillomavirus type 16) [compound 132]
[1]; [3]
  Delta SFC/10^6 cells: 3 SFC/10^6 cells
  Ratio: 1.1
[2]; [4]
  Delta SFC/10^6 cells: 2 SFC/10^6 cells
  Ratio: 1.1

## 133 (YMLDLQPETT; Human papillomavirus type 16) [compound 133]
[1]; [5]
  Delta SFC/10^6 cells: 5 SFC/10^6 cells
  Ratio: 1.4
[1]; [6]
  Delta SFC/10^6 cells: 10 SFC/10^6 cells
  Ratio: 3.3
[2]; [7]
  Delta SFC/10^6 cells: 1 SFC/10^6 cells
  Ratio: 1.0

## 134 (GTLGIVCPI; Human papillomavirus type 16) [compound 134]
[1]; [5]
  Delta SFC/10^6 cells: 1 SFC/10^6 cells
  Ratio: 1.0
[1]; [6]
  Delta SFC/10^6 cells: 3 SFC/10^6 cells
  Ratio: 1.7
[2]; [7]
  Delta SFC/10^6 cells: 55 SFC/10^6 cells
  Ratio: 8.0

## 135 (TIHDIILECV; Human papillomavirus type 16) [compound 135]
[1]; [5]
  Delta SFC/10^6 cells: 562 SFC/10^6 cells
  Ratio: 86.7
[1]; [6]
  Delta SFC/10^6 cells: 358 SFC/10^6 cells
  Ratio: 24.8
[2]; [7]
  Delta SFC/10^6 cells: 80 SFC/10^6 cells
  Ratio: 10.0

## 136 (KLTNTGLYNL; Human papillomavirus type 18) [compound 136]
[1]; [5]
  Delta SFC/10^6 cells: 6 SFC/10^6 cells
  Ratio: 2.0
[1]; [6]
  Delta SFC/10^6 cells: 20 SFC/10^6 cells
  Ratio: 2.7
[2]; [7]
  Delta SFC/10^6 cells: 280 SFC/10^6 cells
  Ratio: 29.0

## 137 (DSVYGDTLEK; Human papillomavirus type 18) [compound 137]
[1]; [8]
  Delta SFC/10^6 cells: 15 SFC/10^6 cells
  Ratio: 1.2
[1]; [9]
  Delta SFC/10^6 cells: 1 SFC/10^6 cells
  Ratio: 1.0
[2]; [10]
  Delta SFC/10^6 cells: 40 SFC/10^6 cells
  Ratio: 1.1

## 138 (FVVYRDSIPH; Human papillomavirus type 18) [compound 138]
[1]; [8]
  Delta SFC/10^6 cells: 1 SFC/10^6 cells
  Ratio: 1.0
[1]; [9]
  Delta SFC/10^6 cells: 1 SFC/10^6 cells
  Ratio: 1.0
[2]; [10]
  Delta SFC/10^6 cells: 110 SFC/10^6 cells
  Ratio: 1.3

## 139 (CYSLYGTTL; Human papillomavirus type 16) [compound 139]
[1]; [11]
  Delta SFC/10^6 cells: 3 SFC/10^6 cells
  Ratio: 1.0
[1]; [12]
  Delta SFC/10^6 cells: 1 SFC/10^6 cells
  Ratio: 1.0
[2]; [13]
  Delta SFC/10^6 cells: 1 SFC/10^6 cells
  Ratio: 1.0

## 140 (PYAVCDKCL; Human papillomavirus type 16) [compound 140]
[1]; [11]
  Delta SFC/10^6 cells: 3 SFC/10^6 cells
  Ratio: 1.1
[1]; [12]
  Delta SFC/10^6 cells: 1 SFC/10^6 cells
  Ratio: 1.0
[2]; [13]
  Delta SFC/10^6 cells: 150 SFC/10^6 cells
  Ratio: 4.2

## 141 (RFHNIRGRW; Human papillomavirus type 16) [compound 141]
[1]; [11]
  Delta SFC/10^6 cells: 3 SFC/10^6 cells
  Ratio: 1.1
[1]; [12]
  Delta SFC/10^6 cells: 1 SFC/10^6 cells
  Ratio: 1.0
[2]; [13]
  Delta SFC/10^6 cells: 205 SFC/10^6 cells
  Ratio: 6.9

## 143 (LYNLLIRWL; Human papillomavirus type 18-derived epitope) [compound 143]
[1]; [11]
  Delta SFC/10^6 cells: 3 SFC/10^6 cells
  Ratio: 1.0
[1]; [12]
  Delta SFC/10^6 cells: 1 SFC/10^6 cells
  Ratio: 1.0
[2]; [13]
  Delta SFC/10^6 cells: 30 SFC/10^6 cells
  Ratio: 1.5

## 144 (LYGVSFTEL; Human papillomavirus type 16-derived epitope) [compound 144]
[1]; [11]
  Delta SFC/10^6 cells: 3 SFC/10^6 cells
  Ratio: 1.0
[1]; [12]
  Delta SFC/10^6 cells: 1 SFC/10^6 cells
  Ratio: 1.0
[2]; [13]
  Delta SFC/10^6 cells: 5 SFC/10^6 cells
  Ratio: 1.1

## 145 (CYSVYGTTL; Human papillomavirus type 16-derived epitope) [compound 145]
[1]; [11]
  Delta SFC/10^6 cells: 23 SFC/10^6 cells
  Ratio: 1.4
[1]; [12]
  Delta SFC/10^6 cells: 90 SFC/10^6 cells
  Ratio: 2.6
[2]; [13]
  Delta SFC/10^6 cells: 55 SFC/10^6 cells
  Ratio: 1.8

## 146 (QAEPDTSNY; Human papillomavirus type 31) [compound 146]
[1]
  ICCG6138 SFC/10^6 cells Delta: 23 SFC/10^6 cells
  ICCG6138 SFC/10^6 cells Ratio: 2.5
[2]
  Peptide Pool SFC/10^6 cells Delta: 4 SFC/10^6 cells
  Peptide Pool SFC/10^6 cells Ratio: 1.2

## 147 (LQDVSIACVY; Human papillomavirus type 45) [compound 147]
[1]
  ICCG6138 SFC/10^6 cells Delta: 6 SFC/10^6 cells
  ICCG6138 SFC/10^6 cells Ratio: 1.4
[2]
  Peptide Pool SFC/10^6 cells Delta: 1 SFC/10^6 cells
  Peptide Pool SFC/10^6 cells Ratio: 1.0

## 148 (FAFTDLTIV; Human papillomavirus type 31) [compound 148]
[1]
  ICCG6137 SFC/10^6 cells Delta: 1 SFC/10^6 cells
  ICCG6137 SFC/10^6 cells Ratio: 1.0
  ICCG6138 SFC/10^6 cells Delta: 1 SFC/10^6 cells
  ICCG6138 SFC/10^6 cells Ratio: 1.0
[2]
  Peptide Pool SFC/10^6 cells Delta: 100 SFC/10^6 cells
  Peptide Pool SFC/10^6 cells Ratio: 8.5

## 149 (YQFAFKDLCI; Human papillomavirus type 45) [compound 149]
[1]
  ICCG6137 SFC/10^6 cells Delta: 3 SFC/10^6 cells
  ICCG6137 SFC/10^6 cells Ratio: 1.1
  ICCG6138 SFC/10^6 cells Delta: 1 SFC/10^6 cells
  ICCG6138 SFC/10^6 cells Ratio: 1.0
[2]
  Peptide Pool SFC/10^6 cells Delta: 10 SFC/10^6 cells
  Peptide Pool SFC/10^6 cells Ratio: 2.0

## 150 (TLQEIVLHL; Human papillomavirus type 45) [compound 150]
[1]
  ICCG6137 SFC/10^6 cells Delta: 5 SFC/10^6 cells
  ICCG6137 SFC/10^6 cells Ratio: 2.0
  ICCG6138 SFC/10^6 cells Delta: 3 SFC/10^6 cells
  ICCG6138 SFC/10^6 cells Ratio: 1.3
[2]
  Peptide Pool SFC/10^6 cells Delta: 70 SFC/10^6 cells
  Peptide Pool SFC/10^6 cells Ratio: 8.0

## 151 (RTEVYQFAFK; Human papillomavirus type 45) [compound 151]
[1]
  ICCG6137 SFC/10^6 cells Delta: 1 SFC/10^6 cells
  ICCG6137 SFC/10^6 cells Ratio: 1.0
  ICCG6138 SFC/10^6 cells Delta: 1 SFC/10^6 cells
  ICCG6138 SFC/10^6 cells Ratio: 1.0
[2]
  Peptide Pool SFC/10^6 cells Delta: 1 SFC/10^6 cells
  Peptide Pool SFC/10^6 cells Ratio: 1.0

## 152 (SVYGTTLEK; Human papillomavirus type 31) [compound 152]
[1]
  ICCG6137 SFC/10^6 cells Delta: 1050 SFC/10^6 cells
  ICCG6137 SFC/10^6 cells Ratio: 5.4
  ICCG6138 SFC/10^6 cells Delta: 1150 SFC/10^6 cells
  ICCG6138 SFC/10^6 cells Ratio: 9.7
[2]
  Peptide Pool SFC/10^6 cells Delta: 730 SFC/10^6 cells
  Peptide Pool SFC/10^6 cells Ratio: 6.2

## 153 (HYTNWKFIY; Human papilloma virus) [compound 153]
[1]
  ICCG6137 SFC/10^6 cells Delta: 19 SFC/10^6 cells
  ICCG6137 SFC/10^6 cells Ratio: 1.3
  ICCG6138 SFC/10^6 cells Delta: 58 SFC/10^6 cells
  ICCG6138 SFC/10^6 cells Ratio: 1.3
[2]
  Peptide Pool SFC/10^6 cells Delta: 155 SFC/10^6 cells
  Peptide Pool SFC/10^6 cells Ratio: 2.7

Reference: US8969542B2, “HPV polyepitope constructs and uses thereof” (priority 2007, dated 2015)
